Reference: PubChem BioAssay AID602129 (The Scripps Research Institute Molecular Screening Center, 2011)
Activity calls are given as the source filed them. The rule behind the calls is not given here.

Each molecule was assayed against Mucolipin-3 (Homo sapiens) (UniProt Q8TDD5) (assay: activators of human MCOLN3 channel – cell-based, fluorescence, dose response, round 3, late-stage follow-up (AID 602129)). Settings: HEK293 TRPML3 cells, calcium fluorescence.
Mucolipin-3 (Homo sapiens), sequence (Q8TDD5 whole entry, looked up): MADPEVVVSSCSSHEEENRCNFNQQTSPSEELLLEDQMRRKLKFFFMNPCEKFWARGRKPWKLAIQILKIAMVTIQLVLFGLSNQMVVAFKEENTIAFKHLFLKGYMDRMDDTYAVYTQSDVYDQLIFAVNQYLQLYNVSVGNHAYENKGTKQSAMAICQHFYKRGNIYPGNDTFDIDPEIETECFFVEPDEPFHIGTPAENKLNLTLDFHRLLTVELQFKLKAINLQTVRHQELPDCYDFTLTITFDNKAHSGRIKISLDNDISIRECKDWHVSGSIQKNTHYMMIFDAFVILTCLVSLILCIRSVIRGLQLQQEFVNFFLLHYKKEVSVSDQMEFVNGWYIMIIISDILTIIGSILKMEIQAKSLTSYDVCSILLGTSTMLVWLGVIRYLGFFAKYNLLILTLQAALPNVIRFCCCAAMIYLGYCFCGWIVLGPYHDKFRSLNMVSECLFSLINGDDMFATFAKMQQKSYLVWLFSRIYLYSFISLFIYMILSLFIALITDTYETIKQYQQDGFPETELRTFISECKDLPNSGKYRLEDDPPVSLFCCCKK

EC50	Structure (SMILES)
> 29.9 µM (inactive)	CCOc1ccc(S(=O)(=O)NCc2ccncc2)c2ccccc12
> 29.9 µM (inactive)	Cc1onc(-c2ccc(Cl)cc2)c1-c1ccn(S(=O)(=O)c2cccs2)n1
4.86 µM	Cc1ccccc1S(=O)(=O)n1ccc(-c2c(-c3ccc(Cl)cc3)noc2C)n1
> 29.9 µM (inactive)	Cc1onc(-c2ccc(Cl)cc2)c1-c1ccn(S(C)(=O)=O)n1
> 29.9 µM (inactive)	Cc1ccc(S(=O)(=O)n2nccc2-c2c(-c3ccccc3)noc2C)cc1
1.53 µM	Cc1onc(-c2ccc(Cl)cc2)c1-c1ccn(S(=O)(=O)c2ccccc2Cl)n1
> 29.9 µM (inactive)	Cc1onc(-c2ccc(Cl)cc2)c1-c1ccn(S(=O)(=O)C(F)(F)F)n1
> 29.9 µM (inactive)	CCOc1ccc(S(=O)(=O)n2ccc(-c3c(-c4ccc(Cl)cc4)noc3C)n2)c2ccccc12
1.95 µM	Cc1onc(-c2ccc(Cl)cc2)c1-c1ccn(S(=O)(=O)c2cccc(Cl)c2)n1
0.68 µM	Cc1ccc(S(=O)(=O)n2ccc(-c3c(-c4ccc(F)cc4)noc3C)n2)cc1
3.78 µM	COc1ccc(S(=O)(=O)n2ccc(-c3c(-c4ccc(Cl)cc4)noc3C)n2)cc1
> 29.9 µM (inactive)	Cc1onc(-c2ccc(Cl)cc2)c1-c1ccn(S(=O)(=O)c2cccc3cccnc23)n1
3.58 µM	Cc1onc(-c2ccc(Cl)cc2)c1-c1ccn(S(=O)(=O)c2ccccc2C(F)(F)F)n1
> 29.9 µM (inactive)	CCOc1ccc(S(=O)(=O)N2CCN(c3ccccc3Cl)CC2)c2ccccc12
inactive	Cc1onc(-c2ccc(Cl)cc2)c1-c1ccn(S(=O)(=O)c2ccc(Cl)cc2)n1
> 29.9 µM (inactive)	Cc1onc(-c2ccc(Cl)cc2)c1-c1ccnn1S(=O)(=O)c1cccc(C(F)(F)F)c1
> 29.9 µM (inactive)	CCOc1ccc(S(=O)(=O)N2CCN(C(=O)OC(C)(C)C)CC2)c2ccccc12
> 29.9 µM (inactive)	CCCCNS(=O)(=O)c1ccc(OCC)c2ccccc12
2.99 µM	COc1ccc(-c2noc(C)c2-c2ccn(S(=O)(=O)c3ccc(C)cc3)n2)cc1

The remaining lines, values behind:

Structure (SMILES)	EC50
Cc1onc(-c2ccccc2)c1-c1ccn(S(=O)(=O)c2ccc(Cl)cc2)n1	> 29.9 µM (inactive)
CCOc1ccc(S(=O)(=O)N2CCCCC2)c2ccccc12	3.46 µM
Cc1onc(-c2ccc(Cl)cc2)c1-c1ccn(S(=O)(=O)c2ccc(C(F)(F)F)cc2)n1	> 29.9 µM (inactive)
COc1ccc(S(=O)(=O)N2CCCCCC2)c2ccccc12	0.476 µM
Cc1onc(-c2ccc(Cl)cc2)c1-c1ccn(S(=O)(=O)c2cccc(C(F)(F)F)c2)n1	3.34 µM
CCOc1ccc(S(=O)(=O)N(CC)CC)c2ccccc12	> 29.9 µM (inactive)
Cc1onc(-c2ccccc2)c1-c1ccnn1S(=O)(=O)c1ccc(Cl)cc1	> 29.9 µM (inactive)
CCOc1ccc(S(=O)(=O)N2CCOCC2)c2ccccc12	> 29.9 µM (inactive)
Cc1onc(-c2ccc(Cl)cc2)c1-c1ccnn1S(=O)(=O)c1ccc(Cl)cc1	> 29.9 µM (inactive)
CCOc1ccc(S(=O)(=O)N2CCCC2)c2ccccc12	> 29.9 µM (inactive)
CCOc1ccc(S(=O)(=O)N2CCSCC2)c2ccccc12	> 29.9 µM (inactive)
Cc1ccc(S(=O)(=O)n2ccc(-c3c(-c4ccccc4)noc3C)n2)cc1	1.46 µM
CCOc1ccc(S(=O)(=O)NCc2ccc(OC)cc2)c2ccccc12	> 29.9 µM (inactive)
Cc1onc(-c2ccc(Cl)cc2)c1-c1ccn(S(=O)(=O)c2ccccc2)n1	2.39 µM
CC(C)Oc1ccc(S(=O)(=O)N2CCCCCC2)c2ccccc12	inactive
